Measurements as given in US4239780A, “Phospholipase A2 inhibition” (The Upjohn Company, priority 1979, dated 1980).
Where a name gives a salt, the structure may show the parent alone.

Tests used:
[1] = biological target: T1, HOG PANCREAS PHOSPHOLIPASE A2 (Sus scrofa, UniProt P00592); test: coupled phospholipase A2 / soybean lipoxygenase oxygen consumption assay, hog pancreas enzyme; format: biochemical; settings: estimated I50 calculated from a partial inhibition value, pH 8.5, 37° C.
T1 construct: from tissue; host or cells: hog pancreas

[2] = tested on: UV induced erythema; test: UV induced erythema on the skin of guinea pigs; format: in vivo, guinea pig; settings: for erythema score, 1 hour / erythema score, 2 hours / erythema score, 3 hours / erythema score, 4 hours / erythema score, 24 hours: aggregate score for 3 animals; for erythema score, (After 4 hours) Total Points / erythema score, (After 24 hours) Total Points: aggregate for 3 animals
Procedure: Some of the compounds of this invention were tested in vivo for their ability to inhibit the effects of UV induced erythema on the skin of guinea pigs. This is an example of an inflammatory process fulfilling the four pathological requirements of "rubor, calor, dolor, and tumor" i.e., reddening, heat, pain, and edematious swelling in the skin. Administration of the compounds of this invention to guinea pigs whose skin was subsequently exposed to ultraviolet light markedly retarded and in some cases eliminated altogether this inflammatory process. Administration of the compounds of this invention was performed both interparenterally and subcutaneously with equivalent results, thereby eliminating any possiblity of reduction in erthyma due to the so called "counter irritant" effect on the serosal soft surface of the gut.
The test was carried out as follows: Guinea pigs of the Hartley strain ranging in weight from 250 to 750 gm. were clipped with coarse and fine clippers to remove as much hair as possible from the back or abdomen. They were then treated with a commercial depilatory for six to seven min. after which they were washed with warm water. The animals were then injected I.P. or subcutaneously with solutions or suspensions of the test compounds made up at 0.02 molar concentrations. The dose was 0.3 ml. per 100 gm. of body weight. A control (untreated) group was also maintained. The animals were then held for 30 min. before being exposed as rapidly as possible to ultra-violet light using a Kromayer lamp for 30 sec. A scoring system was developed to quantitate the erythema. The scoring was from 0 to 5 and is described as follows:
0=no apparent reddening of the skin
0.5=some slight reddening, without a definite border
1.0=a discrete pink circle with a definite border
2.0=a discrete circle of redness with a definite border more intense than 1.0
3.0=same circle with still greater intensity
4.0=same circle with a near maximal response but without any raising of the erythematous spot above the level of the surrounding skin
5.0=a raised edematous circle with the redness at maximal intensity
The animals were scored at hourly intervals for the first four hours. The erythema reached a maximum at this time in the control animals. The major difference between results at 4 hr. and those at 24 is the developement of edema and this occurred in some of the animals treated with phospholipase inhibitors without erythema being present. The results of this test are shown in tabular form in Tables VI and VII. The aggregate scores of the animals treated with the designated compounds are recorded at hourly intervals and compared with the control (untreated) scores. As shown by the tables, the method of this invention markedly retarded UV-induced erythema.

[3] = biological target: T2, HUMAN PLATELET PHOSPHOLIPASE A2 (Homo sapiens, UniProt P47712); test: inhibition of collagen-induced aggregation of human platelets; format: cell-based; settings: human platelet rich plasma, read-out: I50 collagen (converted)
T2 construct: Human blood was drawn from an antecubital vein into 3.8% sodium citrate; endogenous in cells; host or cells: human platelets in citrated plasma (PRP)
T2 sequence (P47712 1-749): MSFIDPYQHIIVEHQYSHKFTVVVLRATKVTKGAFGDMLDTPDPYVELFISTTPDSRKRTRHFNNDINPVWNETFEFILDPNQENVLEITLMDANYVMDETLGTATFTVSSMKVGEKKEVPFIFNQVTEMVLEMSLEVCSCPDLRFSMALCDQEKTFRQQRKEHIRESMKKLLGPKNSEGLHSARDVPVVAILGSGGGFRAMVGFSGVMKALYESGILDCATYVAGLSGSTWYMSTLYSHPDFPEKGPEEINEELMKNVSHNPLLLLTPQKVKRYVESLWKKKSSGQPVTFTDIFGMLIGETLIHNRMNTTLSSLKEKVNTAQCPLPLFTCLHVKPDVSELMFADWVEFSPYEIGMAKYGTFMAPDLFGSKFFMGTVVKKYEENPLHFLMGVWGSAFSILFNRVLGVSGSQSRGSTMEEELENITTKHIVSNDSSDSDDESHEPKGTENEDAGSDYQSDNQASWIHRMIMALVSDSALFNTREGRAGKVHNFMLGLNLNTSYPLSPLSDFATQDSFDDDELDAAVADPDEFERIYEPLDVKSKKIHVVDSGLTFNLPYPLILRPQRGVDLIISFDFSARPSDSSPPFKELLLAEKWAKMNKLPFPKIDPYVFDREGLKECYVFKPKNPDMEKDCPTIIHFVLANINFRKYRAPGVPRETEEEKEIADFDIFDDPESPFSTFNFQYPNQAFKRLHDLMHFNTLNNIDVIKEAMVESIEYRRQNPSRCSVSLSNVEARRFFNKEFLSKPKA
Procedure: The compounds of the present invention were tested for their ability to inhibit collagen-induced aggregation of platelets at 100 μg. per ml. or less. The compounds that were active against collagen-induced aggregation were tested at the I50 dose against arachidonic acid-induced aggregation. Compounds that inhibited collagen-induced aggregation, but not arachidonic acid-induced aggregation, were reported as active phospholipase A2 inhibitors.
The test was run as follows. Human blood was drawn from an antecubital vein into 3.8% sodium citrate with the final citrate concentration being 0.38%. The blood was transferred to plastic centrifuge tubes and centrifuged at 200×g for 10 min. This yielded […] (PRP). This PRP was allowed to stand for 30 min. for testing at which point it was tested against 400 μg. per ml. of arachidonic acid. […] If the platelets aggregated to arachidonic acid, a dose of collagen that gave a substantial irreversible aggregation (approximately 60-80% transmission) was established. It was then attempted to block the response of collagen with 10 μg. per ml. of indomethacin. […] The ID50 for all unknown compounds was then established. Most of the compounds were tested at rather high concentrations and it was often necessary to place the compound in ethanol into the aggregation cuvet and evaporate the ethanol before testing.
Those that were reported as active were tested at the ID50 dose against 400 μg per ml. of arachidonic acid. […] The compounds are shown to inhibit phospholipase A2 from humans at low dosages.

[4] = biological target: SNAKE VENOM PHOSPHOLIPASE A2; test: coupled phospholipase A2 / soybean lipoxygenase oxygen consumption assay, snake venom enzyme; format: biochemical; settings: estimated I50 calculated from a partial inhibition value, pH 8.5, 37° C.
[5] = biological target: BEE VENOM PHOSPHOLIPASE A2 (Apis mellifera, UniProt P00630); test: biochemical; settings: pH 8.5, 37° C.
[6] = intraperitoneal, 23-25.2 mg/kg given 30 min. before UV, control 12
[7] = intraperitoneal, 23-25.2 mg/kg given 30 min. before UV, control 18
[8] = intraperitoneal, 23-25.2 mg/kg given 30 min. before UV, control 24
[9] = intraperitoneal, 23-25.2 mg/kg given 30 min. before UV, control 30
[10] = intraperitoneal, 23-25.2 mg/kg given 30 min. before UV, control 50
[11] = intraperitoneal, 23-25.2 mg/kg, control 78
[12] = intraperitoneal, 23-25.2 mg/kg, control 128
[13] = subcutaneous, 60.9-66.1 mg/kg given 30 min. before UV, control 17
[14] = subcutaneous, 60.9-66.1 mg/kg given 30 min. before UV, control 23
[15] = subcutaneous, 60.9-66.1 mg/kg given 30 min. before UV, control 29
[16] = subcutaneous, 60.9-66.1 mg/kg given 30 min. before UV, control 34
[17] = subcutaneous, 60.9-66.1 mg/kg given 30 min. before UV, control 56
[18] = subcutaneous, 60.9-66.1 mg/kg, control 103
[19] = subcutaneous, 60.9-66.1 mg/kg, control 158

T1 sequence (P00592 23-146): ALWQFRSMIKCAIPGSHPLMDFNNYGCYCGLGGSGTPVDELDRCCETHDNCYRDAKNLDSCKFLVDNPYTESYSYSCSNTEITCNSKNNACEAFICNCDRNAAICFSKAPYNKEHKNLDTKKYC
UniProt P00630, sequence (P00630 34-167 limits assumed): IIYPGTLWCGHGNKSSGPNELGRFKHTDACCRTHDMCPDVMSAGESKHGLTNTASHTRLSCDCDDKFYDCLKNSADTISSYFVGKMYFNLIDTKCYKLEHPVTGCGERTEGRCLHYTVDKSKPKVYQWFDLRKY

| SMILES | IC50 [1] [µM] | erythema score, 1 hour [2, 6] | erythema score, 2 hours [2, 7] | erythema score, 3 hours [2, 8] | erythema score, 4 hours [2, 9] | erythema score, 24 hours [2, 10] | erythema score, (After 4 hours) Total Points [2, 11] | erythema score, (After 24 hours) Total Points [2, 12] | erythema score, 1 hour [2, 13] | erythema score, 2 hours [2, 14] | erythema score, 3 hours [2, 15] | erythema score, 4 hours [2, 16] | erythema score, 24 hours [2, 17] | erythema score, (After 4 hours) Total Points [2, 18] | erythema score, (After 24 hours) Total Points [2, 19] | IC50 [3] [µM] | IC50 [4] [µM] | IC50 [5] [µM] |
| --- | --- | --- | --- | --- | --- | --- | --- | --- | --- | --- | --- | --- | --- | --- | --- | --- | --- | --- |
| O=C(CCCN[C@H]1CC[C@H](c2ccc(C(F)(F)F)cc2)CC1)c1ccc(F)cc1 [A, Butyrophenone, 4'-fluoro-4-[[4-(α,α,α-trifluoro-p-tolyl)-cyclohexyl]amino]-, trans-,] | 5.1 |  |  |  |  |  |  |  |  |  |  |  |  |  |  |  |  |  |
| CO[C@]1(c2ccccc2C)CC[C@H](NCCCC(=O)c2ccc(F)cc2)CC1 [B, Butyrophenone, 4'-fluoro-4-[(c-4-methoxy-4-o-tolylcyclohexyl)-amino]-, hydrochloride, hemihydrate] | 10.7 | 3 | 5 | 5 | 2 | 36 | 15 | 51 | 8 | 7 | 6 | 13 | 33 | 34 | 66 | 183 |  |  |
| CO[C@]1(c2ccccc2C)CC[C@@H](NCCCC(=O)c2ccc(F)cc2)CC1 [C, Butyrophenone, 4'-fluoro-4-[(t-4-methoxy-4-o-tolylcyclohexyl)-amino]-, hydrochloride] | 11.8 | 8 | 13 | 12 | 12 | 27 | 45 | 72 | 10 | 11 | 9 | 10 | 40 | 39 | 79 | 196 | 301 | 404 |
| CO[C@]1(c2ccc(C)cc2)CC[C@H](NCCCC(=O)c2ccc(F)cc2)CC1 [D, Butyrophenone, 4'-fluoro-4-[(c-4-methoxy-4-p-tolyl-r-1-cyclohexyl)amino]-, hydrochloride] | 14.9 |  |  |  |  |  |  |  |  |  |  |  |  |  |  | 261 |  |  |
| O=C(CCCN[C@H]1CC[C@](CO)(c2ccccc2)CC1)c1ccc(Cl)cc1 [E, Butyrophenone, 4'-chloro-4-[[c-4-(hydroxy-methyl)-4-phenyl-r-1-yclohexyl]amino]-, hydrochloride] | 29.8 |  |  |  |  |  |  |  |  |  |  |  |  |  |  |  |  |  |
| CN(CCCC(=O)c1ccc(F)cc1)[C@H]1CC[C@](CO)(c2ccccc2)CC1 [F, Butyrophenone, 4'-fluoro-4-[[c-4-(hydroxy-methyl)-t-4-phenyl-r- -cyclohexyl]methyl-amino]-] | 43.7 | 14 | 12 | 12 | 17 | 60 | 55 | 105 |  |  |  |  |  |  |  | 65.2 |  |  |
| O=C(CCCN[C@H]1CC[C@](CO)(c2ccc(Cl)cc2)CC1)c1ccc(F)cc1 [G, Butyrophenone, 4-[[t-4-(p-chlorophenyl)-c-4-(hydroxymethyl)-r-1-cyclo-hexyl]amino]-4'fluoro-, hydrochloride] | 55.3 |  |  |  |  |  |  |  | 12 | 13 | 9 | 13 | 52 | 46 | 98 | 74.3 |  |  |
| O=C(CCCNC1CCC(c2ccc(Cl)cc2)CC1)c1ccc(F)cc1 (stereo not drawn) [H, Butyrophenone, 4[[4-(p-chlorophenyl)cyclohexyl]-amino]-4'-fluoro-, hydro-chloride] |  |  |  |  |  |  |  |  | 6 | 6 | 7 | 9 | 52 | 28 | 78 |  |  |  |
| O=C(CCCN[C@H]1CC[C@](CO)(c2ccccc2)CC1)c1ccc(F)cc1 [I, Butyropehnone, 4'-fluoro-4-[[4-(hydroxymethyl)-4-phenylcyclohexyl]amino]- cis-, hydrochloride] | 24.3 |  |  |  |  |  |  |  | 2 | 4 | 6 | 7 | 40 | 18 | 58 |  | 221 |  |
